Laboratory results as given in PMC7251927, “Impact of Acute and Chronic Amyloid-β Peptide Exposure on Gut Microbial Commensals in the Mouse” (Frontiers in Microbiology, 2020).

Assays:
[1] = Gut transition time of orally administered TAMRA-labeled Aβ; type: in vivo, mouse; conditions: 10 μg oral; for Gut segment in which TAMRA fluorescence was detected (2 cm sections, 1 = stomach to 12 = rectal): one animal, technical duplicates
Description: (§1) Animals were lightly anesthetized with Isoflurane and 10 μg of peptide or solvent (10 mM NH4OH) administered slowly into the oral cavity. Mice were kept in manual fixation up to ingestion of the fluid to prevent aspiration.
(§2) Animals were deeply anesthetized with isoflurane and sacrificed by decapitation. For microbiome determination, feces pellets close to the rectum were taken. For assessing fluorescence after feeding of TAMRA-labeled Aβ, the whole gut was placed in ice cold isotonic sodium chloride to prevent further peristalsis movement. Segments of 2 cm length were then chopped starting from the stomach, the content collected by longitudinal opening and stored on ice until further use.
After oral application of TAMRA-labeled Aβ or NH4OH as control and sacrifice of the animals 2, 4, or 24 h later, chyme samples were diluted with 500 μl ice cold PBS, incubated for 5 min and centrifuged. Fluorescence was measured by using 50 μl of the supernatant in duplicates (Exc 540 nm and Em 580 nm, FLUOstar Optima, BMG Labtech GmbH, Ortenberg, Germany) at intervals of 1 min over a period of 1 h at 37°C with shaking before every measurement. The mean of the values of the measurements between 15 and 45 min was used to calculate the difference between the TAMRA-labeled Aβ-treated animals and solvent-treated control animals.
FIGURE 2 Stability and time-dependent localization of per os administered Aβ peptides in the murine gastrointestinal tract. (A) TAMRA-labeled Aβ peptide was incubated in two different concentrations [high (H): 0.025 μM; low (L): 0.005 μM] with PBS-diluted gastric content of wild type mice for 2 h at 37°C. Solvent of the peptide was used as a negative control (–). Additionally, samples with PBS instead of chyme were incubated as described (buffer). Proteins were separated on PAA gel and transferred to nitrocellulose. […] (B) To assess the passage of orally administered Aβ peptides, wild type or 5xFAD mice were fed with 10 μg of TAMRA-labeled Aβ peptides and sacrificed at indicated time points. TAMRA-dependent fluorescence was determined in the chyme of 2 cm gut sections numbered from 1 (oral end = stomach) to 12 (rectal section). Values are presented as measured difference between the TAMRA-Aβ-treated animals and solvent-treated control animals (one animal per time point, technical duplicates).

gut microbiome = assay: 16S rDNA sequencing of the gut microbiome after oral peptide application; type: in vivo, mouse; conditions: female wild type mice, 10 μg peptide oral once, feces
Description: as §1, §2

[2] = tested on: murine fecal microorganisms; assay: Bacterial viability assay (BacTiter Glo) on diluted fecal samples; type: cell-based, mouse; conditions: 2 μM peptide, 10 min incubation, luminescence, n = 13 animals
Description: Freshly collected fecal pellets were suspended in isotonic sodium chloride solution (0.9%, 100 μl/mg) using a hand-held electric stirrer (Xenox, Fähren, Germany). Aliquots of 50 μl were supplemented with 5 μl of peptide solution in 0.4 mM NH4OH buffered in PBS. After 10 min incubation at room temperature under careful mixing for every 2 min, 20 μl of this suspension were added to 4 ml of thioglycollate bouillon (Becton Dickinson GmbH, Heidelberg, Germany) and kept for overnight at […]. The following day, 1 μl of the diluted fecal suspension was spread on Schaedler agar plates (Becton Dickinson GmbH, Heidelberg, Germany) and incubated for 48 h anaerobically (Anoxomat, Mart Microbiology B.V, Drachten, Netherlands). Lastly, colony forming units (CFU) were counted and normalized to controls from the same donor mouse incubated with scrambled peptide.
After incubation of diluted feces samples with Aβ peptide or scrambled control for plating (see above), additional 1:100 dilutions were prepared and viability measured by using the BacTiter Glo assay as indicated by the vendor (Promega, Mannheim, Germany). Relative luminescence was measured and normalized to controls from the same donor mouse incubated with scrambled peptide.
Viability was measured and calculated in percent of scrambled peptide treated samples (n = 13 animals per group,♂ = 6–7, ♀ = 6–7). […]

Candida albicans = tested on: Candida albicans; design: method as in Soscia et al., 2010; conditions: single microbial species; ref Soscia et al., 2010; cited from earlier work
Enterobacteriaceae = assay: Family-specific cultivation, CFU on Petrifilm plates selective for Enterobacteriaceae; type: cell-based, mouse; conditions: 2 μM, plates 20 h at 37°C
Description: (§3) For assessing toxic effects of Aβ on specific microbial families, freshly collected feces was suspended and incubated with 2 μM peptide solution as described above. Afterward, feces suspensions were diluted with 0.9% sodium chloride solution for plating 1 ml on 3M^TM-Petrifilm plates specific for Enterobacteriaceae and Lactobacillaceae (3M Deutschland GmbH, Neuss, Germany). Plates were incubated for 20 h at 37°C. CFU were counted and normalized to samples from the same donor mouse incubated with scrambled peptide.
(§4) Viability was measured and calculated in percent of scrambled peptide treated samples (n = 13 animals per group,♂ = 6–7, ♀ = 6–7). […] Subsequently, aliquots of further diluted bacteria suspension were plated on Schaedler agar and incubated anaerobically for 48 h at 37°C. Number of colony forming units (CFU) of samples treated with scrambled peptide control were set to 100% (n = 7 animals per group; ♂ = 3, ♀ = 4). […] Datapoints for individual normalized measurements are shown in each graph (*p < 0.05; **p < 0.01).

Enterococcus faecalis = tested on: Enterococcus faecalis; design: method as in Soscia et al., 2010; conditions: single microbial species; ref Soscia et al., 2010; cited from earlier work
Lactobacillaceae = assay: Family-specific cultivation, CFU on Petrifilm plates selective for Lactobacillaceae; type: cell-based, mouse; conditions: 2 μM, plates 20 h at 37°C, n = 10–11
Description: as §3, §4

Substance	Gut segment in which TAMRA fluorescence was detected (2 cm sections, 1 = stomach to 12 = rectal) ([1]; 5xFAD transgenic mouse, 2 h after treatment)	Gut segment in which TAMRA fluorescence was detected (2 cm sections, 1 = stomach to 12 = rectal) ([1]; 5xFAD transgenic mouse, 4 h after treatment)	TAMRA fluorescence signal in chyme of gut segments ([1]; wild type and 5xFAD mice, 24 h after treatment, any sample)	Gut segment in which TAMRA fluorescence was detected (2 cm sections, 1 = stomach to 12 = rectal) ([1]; wild type mouse, 4 h after treatment)	Beta diversity, Bray–Curtis dissimilarity (CAP), difference vs scrambled Aβ-fed animals (gut microbiome)	Beta diversity, Jaccard distance based ordination (CAP), vs scrambled Aβ-fed animals (gut microbiome)	Viability of fecal microorganisms vs scrambled peptide treated samples ([2]; fecal samples from transgenic 5xFAD mice)	Viability of fecal microorganisms vs scrambled peptide treated samples ([2]; fecal samples from wild type mice)	Antimicrobial effect on Candida albicans (Candida albicans)	Enterobacteriaceae CFU vs scrambled peptide control (Enterobacteriaceae; fecal material from transgenic 5xFAD mice, n = 10–11, p = 0.09)	Enterobacteriaceae CFU vs scrambled peptide control (Enterobacteriaceae; fecal material from wild type mice, n = 10–11)	Antimicrobial effect on Enterococcus faecalis (Enterococcus faecalis)	Lactobacillaceae CFU vs scrambled peptide control (Lactobacillaceae; fecal material from transgenic 5xFAD mice)	Lactobacillaceae CFU vs scrambled peptide control (Lactobacillaceae; fecal material from wild type mice)
TAMRA-labeled Aβ42: TAMRA-labeled Aβ peptide (AnaSpec) used for detecting gut transition of Aβ	11	11	No signal could be detected	11	–	–	–	–	–	–	–	–	–	–
human Aβ1–42 [Aβ42]	–	–	–	–	not significant	significantly differed	no such toxic effect	significantly reduce viability	antimicrobial effect	non-significant reduction	significantly reduced	antimicrobial effect	no significant effects	significantly reduced
